GI50, inhibition in vivo and Activity data for 22 molecules are collected here from ChEMBL document CHEMBL4732043, “The discovery of novel indazole derivatives as tubulin colchicine site binding agents that displayed potent antitumor activity both in vitro and in vivo” (Eur J Med Chem, 2020).

A value given as a limit tells only on which side of the number the result lay.

Series [1] relates to HCT-116. Kind of series: Antiproliferative activity against human HCT-116 cells assessed as cell viability after 72 hrs by MTT assay. It is filed as functional.
In the next series the test system is HepG2. Kind of series: Antiproliferative activity against human HepG2 cells assessed as cell viability after 72 hrs by MTT assay. The series is classed as functional.
The next series relates to A549. The series is described as follows: Antiproliferative activity against human A549 cells assessed as cell viability after 72 hrs by MTT assay. It is filed as functional.
The subject of series [2] is HCT-116. The series is described as follows: Antitumor activity against human HCT-116 cells xenografted in nude mouse assessed as inhibition of tumor growth at 25 mg/kg, po for 21 days. It is filed as functional. The note with it: HCT-116, po, 504 h, time 21 day, read-out: TGI.
Series [3] in a line: Toxicity in nude mouse xenografted with human HCT-116 cells assessed as change in body weight at 25 mg/kg, po for 21 days (reference value: 2.2%). It is filed as organism-based. To be noted: in vivo, 504 h, time 21 day.

In the case of `COc1cc(Nc2n[nH]c3cc(F)ccc23)cc(OC)c1OC`, the concentration for 50% growth inhibition (GI50) with HCT-116 [1] was determined as 5.3 µM; in the series with HepG2, 16 µM; in the series with A549, 21.3 µM.
Turning to `COc1cc(Nc2n[nH]c3cccc(C)c23)cc(OC)c1OC`, the GI50 in the series with HCT-116 [1] was found to be 9.3 µM; in the series with HepG2, 10.1 µM; with A549 it was 6.1 µM.
On to `COc1ccc(Nc2n[nH]c3cc(F)ccc23)cc1OC`, for which the GI50 with HCT-116 [1] is 16.7 µM; in the series on HepG2, greater than 25 µM; with A549 it was greater than 25 µM.
On to `COc1ccc2c(Nc3ccc4c(c3)OCO4)n[nH]c2c1`, for which the concentration for 50% growth inhibition (GI50) in the series with HCT-116 [1], with HepG2 and with A549 was greater than 25 µM each time.
Regarding `COc1cc(Nc2n[nH]c3ccccc23)cc(OC)c1OC`, the results for the concentration for 50% growth inhibition (GI50) in the series on HCT-116 [1], in the series with HepG2 and in the series on A549 were 18.9 µM, 24.1 µM and 19.4 µM, respectively.
For `COc1cc(Nc2n[nH]c3cc(C)ccc23)cc(OC)c1` the same measures were 0.7 µM, 0.2 µM and 1.1 µM.
On the same counts, the results for `COc1ccc(Nc2n[nH]c3cc(OC)ccc23)cc1` are 24.8 µM, greater than 25 µM and greater than 25 µM.
For the molecule `COc1ccc(Nc2n[nH]c3cc(F)ccc23)cc1`, the 50% growth inhibitory concentration (GI50) in the series with HCT-116 [1], with HepG2 and with A549 was greater than 25 µM in each case.
As to `COc1ccc(Nc2n[nH]c3cc(C)ccc23)cc1OC`, the results for the concentration for 50% growth inhibition (GI50) with HCT-116 [1], with HepG2 and in the series on A549 were 2.26 µM, 0.63 µM and 0.99 µM, respectively.
For the molecule `Fc1ccc2c(Nc3ccc4c(c3)OCO4)n[nH]c2c1`, the concentration for 50% growth inhibition (GI50) in the series on HCT-116 [1], in the series with HepG2 and with A549 was greater than 25 µM each time.
For the molecule `COc1ccc(/C=C\c2cc(OC)c(OC)c(OC)c2)cc1O` [COMBRETASTATIN A4], the GI50 in the series on HCT-116 [1] was found to be 0.006 µM; in the series on HepG2, 0.002 µM; in the series on A549, 0.167 µM.
Consider `COc1cc(Nc2n[nH]c3c(C)cccc23)cc(OC)c1OC`, for which the concentration for 50% growth inhibition (GI50) in the series on HCT-116 [1] is 4.6 µM; in the series with HepG2, 5.4 µM; with A549, 4.3 µM.
On to `COc1ccc2c(Nc3ccc(OC)c(OC)c3)n[nH]c2c1`, for which the GI50 was 14.6 µM in the series with HCT-116 [1], greater than 25 µM in the series with HepG2 and greater than 25 µM in the series with A549.
For the molecule `O=c1[nH]cc(F)c(=O)[nH]1` [FLUOROURACIL], in the series on HCT-116 [2], the inhibition in vivo at 25 mg/kg came out at 45.5%. Moreover, the Activity in series [3] is given as 21.8%.
With `COc1cc(Nc2n[nH]c3ccc(C)cc23)cc(OC)c1`, the GI50 with HCT-116 [1], with HepG2 and in the series with A549 was greater than 25 µM each time.
In the case of `COc1ccc(Nc2n[nH]c3cc(C)ccc23)cc1`, the GI50 with HCT-116 [1], in the series on HepG2 and with A549 was greater than 25 µM throughout.
As to `Cc1ccc2c(Nc3ccc4c(c3)OCO4)n[nH]c2c1`, the GI50 in the series with HCT-116 [1] was 23.7 µM; in the series with HepG2, greater than 25 µM; in the series with A549, greater than 25 µM.
Consider `Cc1ccc2[nH]nc(Nc3ccc4c(c3)OCO4)c2c1`, for which the 50% growth inhibitory concentration (GI50) with HCT-116 [1], in the series on HepG2 and in the series on A549 was greater than 25 µM in each case.
Turning to `COc1ccc(Nc2n[nH]c3ccc(C)cc23)cc1OC`, the values for the GI50 in the series on HCT-116 [1], in the series with HepG2 and with A549 were 22.3 µM, greater than 25 µM and greater than 25 µM, respectively.
Turning to `COc1ccc(Nc2n[nH]c3ccc(C)cc23)cc1`, the 50% growth inhibitory concentration (GI50) in the series on HCT-116 [1], with HepG2 and in the series on A549 was greater than 25 µM throughout.
As for `COc1cc(Nc2n[nH]c3cc(OC)ccc23)cc(OC)c1`, the 50% growth inhibitory concentration (GI50) in the series on HCT-116 [1] was 0.96 µM; in the series with HepG2, 0.78 µM; in the series on A549, 0.51 µM.
In the case of `COc1cc(Nc2n[nH]c3ccc(C)cc23)cc(OC)c1OC`, the 50% growth inhibitory concentration (GI50) with HCT-116 [1] stood at 2.6 µM; in the series on HepG2, 4 µM; in the series with A549, 1.1 µM.
